# Results reported in patent US20030134859A1 (SANKYO COMPANY, LIMITED, priority 2000, published 2003).
# Tests used:
# [1] = tested on: Rat white adipocytes; assay: Stimulation of differentiation of the adipocytes (Oil Red O); type: cell-based; conditions: 100 nM test compound, 5 days, Oil Red O ABS550, control = 100%, blank = 0%, Table 7; for activity at 0.1 µM: Rattus norvegicus, Adipocyte, 120 h, read-out: Rate of Differentiation (%)
# Outline: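 Rat white adipocytes, 5,000 cells/well, cultured 5 days in differentiation-inducing medium with test compound at final 100 nM (0.1% DMSO). Cells fixed, stained with Oil Red O, dye extracted in DMSO and read at 550 nm; differentiation rate expressed relative to vehicle control (100%) and cell-free blank (0%).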
# [2] = tested on: leptin production; assay: Enhancing activity for leptin production in adipocytes (ELISA); type: cell-based, rat; conditions: leptin concentration as % of control group; for Facilitating activity to produce leptin: 24 hr
# Outline: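 Collagenase-dispersed epididymal adipocytes from 6-week-old male Wistar Imamichi rats, cultured in DMEM/F-12 (1:1) with test compound at final 1 µM, 100 nM, 10 nM or 1 nM (0.1% DMSO) for 24 h at 37 °C, 5% CO2. Leptin in filtrate measured by ELISA; activity = treated/DMSO-control leptin × 100 (%).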
# [3] = Rattus norvegicus, Adipocyte, 24 h, 1 μM, read-out: Facilitating activity to produce leptin
# [4] = Rattus norvegicus, Adipocyte, 24 h, 100 nm, read-out: Facilitating activity to produce leptin
Molecule,activity at 0.1 µM [1],further results
"O=C(Nc1ccc(-c2ccccc2)cc1)c1cc([N+](=O)[O-])ccc1Cl [Example 2, N-(4-Phenylphenyl)-(2-chloro-5-nitrophenyl)carboxamide]",127%,"activity at 1 µM [2, 3]: 113%"
"O=C(Nc1ccccc1-c1ccccc1)c1cc([N+](=O)[O-])ccc1Cl [Example 7, N-(2-Phenylphenyl)-(2-chloro-5-nitrophenyl)carboxamide]",120%,"activity at 0.1 µM [2, 4]: 114%"
"CC(C)(C)c1cc(NC(=O)c2cc([N+](=O)[O-])ccc2Cl)cc(C(C)(C)C)c1O [Example 29, N-(3,5-Di-t-butyl-4-hydroxyphenyl)-(2-chloro-5-nitrophenyl)carboxamide]",111%,"activity at 1 µM [2, 3]: 142%"
"O=C(Nc1nc(-c2cccc3ccccc23)cs1)c1cc([N+](=O)[O-])ccc1Cl [Example 41, N-[4-(1-Naphthyl)thiazol-2-yl]-(2-chloro-5-nitrophenyl)carboxamide]",118%,
"Cc1ccc(-c2nc(NC(=O)c3cc([N+](=O)[O-])ccc3Cl)sc2C)cc1Cl [Example 46, N-[4-(3-Chloro-4-methylphenyl)-5-methylthiazol-2-yl]-(2-chloro-5-nitrophenyl)carboxamide]",124%,
Cc1nc(NC(=O)c2cc([N+](=O)[O-])ccc2Cl)sc1C [Example 47],141%,
"Cc1cccc(NC(=O)c2cc([N+](=O)[O-])ccc2Cl)n1 [Example 51, N-(6-Methylpyridin-2-yl)-(2-chloro-5-nitrophenyl)carboxamide]",129%,
"Cc1ccc(NC(=O)c2cc([N+](=O)[O-])ccc2Cl)nc1 [Example 52, N-(5-Methylpyridin-2-yl)-(2-chloro-5-nitrophenyl)carboxamide]",133%,"activity at 0.001 µM ([2]; Rattus norvegicus, Adipocyte, 24 h, 1 nm, read-out: Facilitating activity to produce leptin): 111%"
"O=C(Nc1ccc2c3c(cccc13)CC2)c1cc([N+](=O)[O-])ccc1Cl [Example 54, N-(Acenaphthen-5-yl)-(2-chloro-5-nitrophenyl)carboxamide]",118%,"activity at 1 µM [2, 3]: 113%"
"Cc1ccnc(NC(=O)c2cc([N+](=O)[O-])ccc2Cl)n1 [Example 65, N-(4-Methylpyrimidin-2-yl)-(2-chloro-5-nitrophenyl)carboxamide]",112%,
"COC(=O)c1sccc1NC(=O)c1cc([N+](=O)[O-])ccc1Cl [Example 66, N-(2-Methoxycarbonylthiophen-3-yl)-(2-chloro-5-nitrophenyl)carboxamide]",113%,
"Cn1c(NC(=O)c2cc([N+](=O)[O-])ccc2Cl)nc2ccccc21 [Example 82, N-(1-Methylbenzimidazol-2-yl)-(2-chloro-5-nitrophenyl)carboxamide]",114%,"activity at 1 µM [2, 3]: 111%; activity at 0.1 µM [2, 4]: 108%"
"O=C(Nc1nncs1)c1cc([N+](=O)[O-])ccc1Cl [Example 85, N-(1,3,4-Thiadiazol-2-yl)-(2-chloro-5-nitrophenyl)carboxamide]",125%,
"O=C(Nc1ccc(S(=O)(=O)Nc2nccs2)cc1)c1cc([N+](=O)[O-])ccc1Cl [Example 96, N-[4-(Thiazol-2-yl)aminosulfonyl]phenyl-(2-chloro-5-nitrophenyl)carboxamide]",123%,
Cc1cc(NS(=O)(=O)c2ccc(NC(=O)c3cc([N+](=O)[O-])ccc3Cl)cc2)no1 [Example 99],,Rate of Differentiation (%) [1]: 119.0%; Facilitating activity to produce leptin ([2]; 1 μM): 113.9%
"O=C(Nc1ccc(S(=O)(=O)Nc2ccc(Cl)nn2)cc1)c1cc([N+](=O)[O-])ccc1Cl [Example 102, N-[4-[(6-Chloropyridazin-3-yl)aminosulfonyl]phenyl]-(2-chloro-5-nitrophenyl)carboxamide]",114%,
"N=C(N)NS(=O)(=O)c1ccc(NC(=O)c2cc([N+](=O)[O-])ccc2Cl)cc1 [Example 106, N-[4-(Amidinoaminosulfonyl)phenyl]-(2-chloro-5-nitrophenyl)carboxamide]",113%,
"Cc1ccc(S(=O)(=O)Nc2ccc(NC(=O)c3cc([N+](=O)[O-])ccc3Cl)cc2)cc1 [Example 116, N-[4-(4-Toluenesulfonylamino)phenyl]-(2-chloro-5-nitrophenyl)carboxamide]",124%,
"CC(=O)Nc1ccc(NC(=O)c2cc([N+](=O)[O-])ccc2Cl)cc1 [Example 117, N-(4-Acetylaminophenyl)-(2-chloro-5-nitrophenyl)carboxamide]",122%,
"O=C(Nc1ccc(NC(=O)c2cc([N+](=O)[O-])ccc2Cl)cc1)c1ccccc1 [Example 119, N-(4-Benzoylaminophenyl)-(2-chloro-5-nitrophenyl)carboxamide]",135%,
"O=C(Nc1ccc(NC(=O)c2cc([N+](=O)[O-])ccc2Cl)cc1)c1ccncc1 [Example 125, N-[4-(Pyridin-4-ylcarbonylamino)phenyl]-(2-chloro-5-nitrophenyl)carboxamide]",132%,
"CCCCCCN(CCCCCC)c1ccc(NC(=O)c2cc([N+](=O)[O-])ccc2Cl)cc1 [Example 138, N-[4-(N,N-di-n-Hexylamino)phenyl]-(2-chloro-5-nitrophenyl)carboxamide]",126%,"activity at 1 µM [2, 3]: 111%"
"CC(C)(C)c1cc(C(=O)Nc2ccc(NC(=O)c3cc([N+](=O)[O-])ccc3Cl)cc2)cc(C(C)(C)C)c1O [Example 157, N-[4-[(3,5-di-tert-Butyl-4-hydroxybenzoyl)amino]phenyl]-(2-chloro-5-nitrophenyl)carboxamide]",116%,
"CN(C)c1cccc(NC(=O)c2cc([N+](=O)[O-])ccc2Cl)c1 [Example 176, N-(3-Dimethylamino)phenyl-(2-chloro-5-nitrophenyl)carboxamide]",118%,"activity at 0.1 µM [2, 4]: 110%"
"O=C(Nc1ccc(S(=O)(=O)Nc2ccc(N3CCOCC3)cc2)cc1)c1cc([N+](=O)[O-])ccc1Cl [Example 179, N-[4-[4-(Morpholin-4-yl)phenyl]aminosulfonyl]phenyl-(2-chloro-5-nitrophenyl)carboxamide]",128%,
"CCCNc1ccc(NC(=O)c2cc([N+](=O)[O-])ccc2Cl)cc1 [Example 181, N-[4-(N-Propylamino)phenyl]-(2-chloro-5-nitrophenyl)carboxamide]",128%,
"CCCN(CC)c1ccc(NC(=O)c2cc([N+](=O)[O-])ccc2Cl)cc1 [Example 189, N-[4-(N-Ethyl-N-propylamino)phenyl]-(2-chloro-5-nitrophenyl)carboxamide]",133%,
N-[4-(Pyrrolidinylsulfonyl)phenyl]-(2-chloro-5-nitrophenyl)carboxamide [Example 152],,Rate of Differentiation (%) [1]: 112.7%; Facilitating activity to produce leptin ([2]; 100 nm): 116.4%
